Test results reported in patent US5451600A, “Substituted tetrahydrobenzopyrrolylfuranoic acid derivatives as phospholipase A2 inhibitors” (Hoffmann-La Roche Inc., priority 1994, dated 1995).
pIC50: −log10 of the molar value. Read-outs that look alike come from different tables or passages of the source.

Assays:
[1] = system: adjuvant-induced arthritis in male Lewis rats; assay: Established adjuvant-induced arthritis test; format: in vivo, rat; conditions: day 28 minus day 21, vehicle value in parentheses
Procedure: IV. Adjuvant-induced Arthritis
Male Lewis rats (120-140 g) received 0.1 mg myeobacterium brityricum (0.5% ow/v) heavy mineral oil containing 0.2% digitonin administered in the base of the tail and the resulting arthritis was allowed to develop for 21 days (Coffey and Salvador, 1981). The combinded volumes of both hind paws were measured using a water plethysmograph by immersion of the paws to the level of the lateral malleolus. The animals were divided into drug-treatedand vehicle (control) groups (six rats per group) with approximately equal volumes of both hind paws. On day 21, body weights were recorded and the i.p. or p.o. vehicle and drug were then administered daily for seven days. On day 28, the final day of the experiment, heparinized (0.2 units/100 μl) blood was also collected for measurement of plasma fibrinogen concentrations (Goodwin, 1961). The changes in paw volume and body weight were calculated as paw volume or body weight at day 28 minus paw volume or body weight at day 21. Values are reported as means ± S.E. for n=6. Plasma fibrinogen concentration was quantitated according to Goodwin et al. (1961) and is expressed in mg/dl. Statistical differences between measurement parameters of the drug-treated and control groups were determined using Students's t-test.

[2] = target: T1, PLA2 activity in human synovial fluid (HSF) (Homo sapiens, UniProt P14555); assay: Phospholipase A2 (PLA2) enzymatic assay - % Inhibition of HSF-PLA2; format: biochemical; conditions: for pIC50: human synovial fluid PLA2, 30 min at 37° C., pH 7.3; for inhibition at 5 µM: read-out: % Inhib. of HSF-PLA2 at 5 μM
T1 construct: Synovial fluid was obtained from patients with rheumatoid arthritis; from tissue; host or cells: cell-depleted synovial fluid of patients with rheumatoid arthritis
T1 sequence (P14555 21-144): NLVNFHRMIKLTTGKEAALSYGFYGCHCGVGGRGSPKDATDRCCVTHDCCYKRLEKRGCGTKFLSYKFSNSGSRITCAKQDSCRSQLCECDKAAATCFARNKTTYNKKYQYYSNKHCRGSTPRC
Description: 1, Phospholipase A2 (PLA2) enzymatic assay - % Inhibition of HSF-PLA2
PLA2 assay procedure described by Hope et al., Inflammation 14:543-559 (1.990) was utilized to measure the inhibitory activity of the invention (inhibitor) against PLA2 activity in human synovial fluid (HSF). Synovial fluid was obtained from patients with rheumatoid arthritis. The assay procedure measured the release of [1-^14 C]oleic acid from the sn-2 position of phospholipids in autoclaved Escherichia coli previously grown in media containing [1-^14 C]oleic acid. The standard assay reaction conditions included 1×10^9 Escherichia coil (10,000 dpm ^14 C), 0.15% (v/v) cell-depleted HSF, (which was equivalent to 66 μg protein/mL) 2 mM CaCl2, 150 mM NaCl, 50 mM sodium (N-[2-hydroxyethyl] piperazine-N'-[2-ethanesulfonate]) (HEPES) buffer (pH 7.3), 1% dimethyl sulfoxide (DMSO) and various concentrations of inhibitor in a total volume of 0.5 ml. Inhibitors were dissolved in DMSO and added. The reaction was initiated by addition of HSF, incubated for 30 min at 37° C. and then stopped by addition of 2.5 ml of chloroform/methanol (1:1.5, v/v). The total lipids were extracted by the method of Bligh, E. G., and Dyer, W. J, Can. J. Biochem. Physiol. 37:911-917 (1959) by the further addition of 0.5 mL of chloroform and 1 mL of water with mixing. The lipid extract was redissolved in chloroform/methanol (9:1, v/v) containing 10 ug of carrier oleic acid. The oleic acid was separated from phospholipids by thin layer chromatography using gel-impregnated glass fiber sheets (ITLC type SG sheets). The sheets were preactivated by heating at 110° C. for 30 min. The lipid extract was applied to the sheets and chromatographed for 6 minutes, using hexane/acetic acid (100:1, v/v). The positions on the sheet containing oleic acid and phospholipids were visualized by exposure to iodine vapor and located by comparison to standards. The oleic acid and phospholipid zones were cut from the sheets, shaken individually with 2 ml of ethanol/water (80:20, v/v) and 15 ml of Aquasol, then counted for [^14 C] radioactivity (dpm). PLA2 activity, expressed as percent hydrolysis, was calculated from the formula: [formula] and was corrected for nonenzymatic hydrolysis of the substrate. Percent inhibition due to the presence of drug was calculated from the formula: [formula]
When various concentrations of a Compound of Formula I were tested, the percent inhibition at each concentration was plotted as log concentration (abscissa) versus percent inhibition (ordinate) and the IC50 was determined from this plot.

[3] = system: carrageenan-induced paw edema in rats; assay: Carrageenan-induced paw edema model of inflammation; format: in vivo; conditions: 2 hr, rat, read-out: Carrageenan ind. paw edema % Inhib. 2 hr; for inhibition in vivo at 3 mg/kg: 3 mg/Kg ip; for inhibition in vivo at 100 mg/kg: 100 mg/Kg po
[4] = system: PLA2-induced rat paw edema (PLA2 purified from Naja naja snake venom); assay: PLA2-induced rat paw edema model of inflammation; format: in vivo
[5] = system: cellular PLA2; assay: Inhibition of Cellular Phospholipase A2 (A23187-stimulated macrophages); format: cell-based; conditions: rat peritoneal macrophages, A-23187 stimulated
Procedure: II. Inhibition of Cellular Phospholipase A2. - % Inhibition of Cellular PLA2
Resident macrophages were obtained from rats by peritoneal lavage with phosphate buffered saline minus Ca2^++ and Mg2^++ (PBS). Cells were washed 3 times with PBS and resuspended in Dulbecco's Modified Eagle's Medium (GiBco) containing L-glutamine low D-glucose (1000 mg/L), and sodium pyruvate (110 mg/L), supplemented with 10% fetal calf serum. Cells were counted on a Coulter ZBI cell counter and then resuspended to a concentration of 6×10^6 cells/1.5 ml. The cell suspension (1.5 ml culture dishes (35 mm) and the cells were allowed to adhere to the dishes for 90 minutes at 37° C. Dishes were washed 3 times with PBS to remove non-adherent cells. [^14 C]arachidonic acid ([^14 C]-AA, approximately […], were added to the cells (1 uCi/dish) and allowed to incorporate for 120 minutes. Medium containing unincorporated [^14 C]-AA was removed and the cell layer was again washed 3 times with PBS. Inhibitors were dissolved in dimethylsulfoxide (DMSO) and added directly to the macrophages in Hank's Balanced Salt Solution (GiBco) phosphate-buffered, pH 7.4) to obtain the desired final concentration. Cells were incubated with drug or DMSO for 30 minutes at 37° C. and were then stimulated with calcium-ionophore A-23187 (0.75 uM) for 20 minutes. The extracellular medium was removed and the [^14 C] radioactivity released into this medium from AA metabolism was measured by liquid scintillation spectroscopy. The amounts of LTB4 and PGE2 were measured in the extracellular medium by radio immunoassay with specific antisera. The effects of inhibitor were measured as percent inhibition of A23187- stimulated AA metabolite release (^14 C release, PGE2 and LTB4 production) (control) which were calculated from the formula: [formula] IC50 's were calculated as described in the HSF-PLA2 assay.

| Structure (SMILES) | pIC50 [2] | inhibition at 5 µM [2] [%] | inhibition in vivo at 3 mg/kg [3] [%] | inhibition in vivo at 100 mg/kg [3] [%] | PLA2-ind. paw edema % Inhib 2 hr ([4]; 100 mg/Kg po) [%] | % Inhib. of cellular PLA2 at 5 μM [5] [%] | pIC50 [5] | Change of body wt. (vehicle) ([1]; 30 mg/Kg po daily seven days) [g] | Change of paw volume (vehicle) ([1]; 30 mg/Kg po daily seven days) [mL] | PLA2-ind. paw edema % Inhib 2 hr ([4]; 30 mg/Kg ip) [%] | inhibition in vivo at 10 mg/kg ([3]; 10 mg/Kg ip) [%] | also measured |
| --- | --- | --- | --- | --- | --- | --- | --- | --- | --- | --- | --- | --- |
| CCCCCCCCn1c2c(c3cc(Oc4ccc(C(=O)O)o4)ccc31)CCCC2 [Example 132, 5-[(1,2,3,4-tetrahydro-9-octyl-9H-dibenzo[b,d]pyrrol-6-yl)oxy]-2-furancarboxylic acid] | 5.40 | 79 | 45 | 65 | 34 | 97 | 6.00 | – | – | – | – | Change of body wt. (vehicle) ([1]; 10 mg/Kg po daily seven days): 13 g; Change of paw volume (vehicle) ([1]; 10 mg/Kg po daily seven days): 0.48 mL |
| CCCCCCCCn1c2c(c3cc(Cc4ccc(C(=O)O)o4)ccc31)CCCC2 [Example 160, 5-[(1,2,3,4-tetrahydro-9-octyl-9H-dibenzo[b,d]pyrrol-6-yl)methyl]-2-furancarboxylic acid] | – | 49 | 46 | – | – | 94 | – | 4 | 0.47 | 49 | – | inhibition in vivo at 10 mg/kg ([3]; 10 mg/Kg po): 50% |
| CCCCCCCCn1c2c(c3cc(/C=C/c4ccc(C(=O)O)o4)ccc31)CCCC2(C)C [Example 44, (E)-5-[2-(1,2,3,4-tetrahydro-1,1-dimethyl-9-octyl-9H-dibenzo[b,d]pyrrol-6-yl)ethenyl]-2-furancarboxylic acid] | 5.60 | 71 | – | 36 | 27 | 62 | 5.40 | 5 | 0.68 | 71 | 57 | – |
| CCCCCCCCn1c2c(c3cc(/C=C\c4ccc(C(=O)O)o4)ccc31)CCCC2(C)C [Example 52, (Z)-5-[2-(1,2,3,4-tetrahydro-1,1-dimethyl-9-octyl-9H-dibenzo[b,d]-pyrrol-6-yl)ethenyl]-2-furancarboxylic acid] | – | 73 | – | – | – | 66 | – | 13 | 0.66 | – | 50 | – |
| CCCCCCCCn1c2c(c3cc(/C=C/c4ccc(C(=O)O)o4)ccc31)CCCC2 [Example 43, (E)-5-[2-(1,2,3,4-tetrahydro-9-octyl-9H-dibenzo[b,d]pyrrol-6-yl)ethenyl]-2-furancarboxylic acid] | 5.22 | – | – | 29 | – | – | 6.30 | – | – | – | – | Change of body wt. (vehicle) ([1]; 10 mg/Kg ip daily seven days): 12 g; Change of paw volume (vehicle) ([1]; 10 mg/Kg ip daily seven days): -0.18 mL; Change of body wt. (vehicle) ([1]; 100 mg/Kg po daily seven days): 12 g; Change of paw volume (vehicle) ([1]; 100 mg/Kg po daily seven days): -0.29 mL; inhibition at 10 µM ([2]; 10 μM (footnote a), read-out: % Inhib. of HSF-PLA2 (a: % Inhibition at 10 μM)): 90%; inhibition in vivo at 50 mg/kg ([3]; 50 mg/Kg ip): 40%; PLA2-ind. paw edema % Inhib 2 hr ([4]; 50 mg/Kg ip): 60% |
